The text below walks through data of PMC6254802, “Development of a High-Throughput Assay for Screening of γ-Secretase Inhibitor with Endogenous Human, Mouse or Drosophila γ-Secretase” (Molecules, 2009).

What is called IC50 is the concentration at which inhibition is half-maximal.

One experiment has as its target T1, human γ-secretase (Homo sapiens, UniProt P49768).
T1 construct: endogenously expressing human γ-secretase from HEK293T cell membrane; endogenous in cells; host or cells: HEK293T cells (membrane fraction, solubilised with 0.25% CHAPSO)
Kind of experiment: Fluorogenic substrate assay with endogenous human γ-secretase from HEK293T cell membrane. The experiment is classed as biochemical. To be noted: for IC50: 10 μg membrane protein, 6 μM substrate, 5 h, 37 °C, mean ± SEM; for maximal inhibition: human γ-secretase, relative to 1 μM L685,458 = 100%. The protocol: All procedures were carried out at 4 °C. […] Mouse cortex was homogenized with 15 stokes of pestle A in the same lysis buffer. The homogenates were centrifuged at 800 g for 10 min to remove nuclei and large debris. The supernatants were centrifuged at 25,000 g for 1 h at 4 °C and the membrane pellets were resuspended in reaction buffer containing 50 mM Tris-HCl (pH 6.8), 2 mM EDTA, 150 mM KCl and Complete^TM protease inhibitor cocktail.
For assay optimization, aliquots of membrane protein (5~30 μg) was added to each well of a 96-well plate with various concentrations of fluorogenic substrate (4~8 μM). Different concentrations of compounds were added and the final reaction system was adjusted to 100 μL/well with the reaction buffer. The plate was incubated at 37 °C in a humidified atmosphere for indicated time periods. Fluorescence was measured using a BIOTEK FLX800 microplate reader with the excitation wavelength at 355 nm and the emission wavelength at 440 nm. The activity of γ-secretase was presented as the relative fluorescent unit (RFU). For compound screening, 1 μM of L685,458 was used as a positive control, and 1% DMSO was used as negative control.
(§1) Data were analyzed with GraphPad Prism software (GraphPad, San Diego, CA, USA). Non-linear regression analyses were performed to generate dose-response curves and calculate IC50 values, and linear regression was used to analyze data reproducibility. Mean ± SEM was calculated automatically with this software. Z’ factor was calculated by the following equation: Z’ = 1 - (3SD++3SD-) / │Ave+ - Ave-│ in which SD+ is the standard deviation of positive control, SD-is the standard deviation of negative control, Ave+ is the mean value of the positive control, and Ave-is the mean value of the negative control.

In another experiment the target is T2, drosophila γ-secretase (Drosophila melanogaster, UniProt O02194).
T2 construct: membrane containing drosophila or mouse γ-secretase was isolated from S2 cells or mouse cortex, respectively; host or cells: Drosophila Schneider 2 (S2) cells, membrane fraction
T2 sequence (O02194 whole entry): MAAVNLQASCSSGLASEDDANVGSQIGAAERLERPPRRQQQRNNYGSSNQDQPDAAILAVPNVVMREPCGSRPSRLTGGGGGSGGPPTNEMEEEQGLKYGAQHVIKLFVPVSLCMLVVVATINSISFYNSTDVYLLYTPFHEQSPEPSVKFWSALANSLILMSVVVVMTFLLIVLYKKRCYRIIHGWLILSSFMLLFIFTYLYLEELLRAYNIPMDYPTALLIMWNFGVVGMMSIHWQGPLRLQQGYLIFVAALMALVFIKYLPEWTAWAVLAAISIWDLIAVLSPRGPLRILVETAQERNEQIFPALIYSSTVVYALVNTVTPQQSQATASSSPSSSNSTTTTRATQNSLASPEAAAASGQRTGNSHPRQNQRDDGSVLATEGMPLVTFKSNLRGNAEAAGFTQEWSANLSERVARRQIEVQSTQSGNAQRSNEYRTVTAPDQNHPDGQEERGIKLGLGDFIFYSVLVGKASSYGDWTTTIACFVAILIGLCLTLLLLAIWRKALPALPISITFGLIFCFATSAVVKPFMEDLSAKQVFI
T2 sequence (Q9VC27 23-695 partner): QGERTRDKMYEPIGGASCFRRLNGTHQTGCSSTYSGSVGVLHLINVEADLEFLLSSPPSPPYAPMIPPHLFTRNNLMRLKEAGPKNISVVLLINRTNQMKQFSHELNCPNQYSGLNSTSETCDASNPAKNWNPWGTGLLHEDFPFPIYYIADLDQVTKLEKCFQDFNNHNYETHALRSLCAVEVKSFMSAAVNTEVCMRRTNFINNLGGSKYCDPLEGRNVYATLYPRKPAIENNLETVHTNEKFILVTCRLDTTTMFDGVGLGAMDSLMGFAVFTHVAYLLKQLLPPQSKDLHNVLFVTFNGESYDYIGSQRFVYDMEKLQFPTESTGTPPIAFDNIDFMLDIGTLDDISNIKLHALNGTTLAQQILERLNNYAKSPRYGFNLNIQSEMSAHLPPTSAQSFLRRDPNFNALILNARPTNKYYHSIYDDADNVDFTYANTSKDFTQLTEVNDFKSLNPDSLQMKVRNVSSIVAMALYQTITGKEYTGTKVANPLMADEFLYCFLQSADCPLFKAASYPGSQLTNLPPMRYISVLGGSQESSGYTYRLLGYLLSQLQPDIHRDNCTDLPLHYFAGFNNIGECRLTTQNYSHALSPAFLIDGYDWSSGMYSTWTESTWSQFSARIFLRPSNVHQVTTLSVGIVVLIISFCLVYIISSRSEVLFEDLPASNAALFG
T2 sequence (Q9VQG2 whole entry partner): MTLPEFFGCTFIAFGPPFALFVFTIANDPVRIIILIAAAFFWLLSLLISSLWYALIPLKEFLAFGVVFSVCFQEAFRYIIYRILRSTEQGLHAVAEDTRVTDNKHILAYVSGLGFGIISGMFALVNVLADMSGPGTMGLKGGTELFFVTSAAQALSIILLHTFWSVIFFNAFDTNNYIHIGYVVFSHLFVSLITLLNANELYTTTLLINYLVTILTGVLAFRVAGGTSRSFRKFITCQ
T2 sequence (Q86BE9 whole entry partner): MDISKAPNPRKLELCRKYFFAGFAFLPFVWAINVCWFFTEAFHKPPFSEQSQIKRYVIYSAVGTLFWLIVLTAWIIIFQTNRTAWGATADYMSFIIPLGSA
Kind of experiment: Fluorogenic substrate assay with drosophila γ-secretase from S2 cell membrane. The class given is biochemical.

Another experiment has as its target mouse γ-secretase. Kind of experiment: Fluorogenic substrate assay with mouse γ-secretase from mouse cortex membrane. The class given is biochemical. The conditions noted are these: mean ± SEM, n = 3. Here is the method:
All procedures were carried out at 4 °C. HEK 293T or S2 cells were washed with ice-cold PBS by centrifugation at 500 g for 5 min and the pellets were homogenized with a Dounce homogenizer (pestle B, 15 strokes) in lysis buffer contained 5 mM Tris-HCl (pH 7.4), 5 mM EDTA, 5 mM EGTA and Complete^TM protease inhibitor cocktail. Mouse cortex was homogenized with 15 stokes of pestle A in the same lysis buffer. The homogenates were centrifuged at 800 g for 10 min to remove nuclei and large debris. The supernatants were centrifuged at 25,000 g for 1 h at 4 °C and the membrane pellets were resuspended in reaction buffer containing 50 mM Tris-HCl (pH 6.8), 2 mM EDTA, 150 mM KCl and Complete^TM protease inhibitor cocktail. After measuring the protein concentration, the membranes were diluted to 1 mg/ml in 50 mM Tris-HCl, pH 6.8, 2 mM EDTA, 150 mM KCl, 0.25% CHAPSO.
For assay optimization, aliquots of membrane protein (5~30 μg) was added to each well of a 96-well plate with various concentrations of fluorogenic substrate (4~8 μM). Different concentrations of compounds were added and the final reaction system was adjusted to 100 μL/well with the reaction buffer. The plate was incubated at 37 °C in a humidified atmosphere for indicated time periods. Fluorescence was measured using a BIOTEK FLX800 microplate reader with the excitation wavelength at 355 nm and the emission wavelength at 440 nm. The activity of γ-secretase was presented as the relative fluorescent unit (RFU). For compound screening, 1 μM of L685,458 was used as a positive control, and 1% DMSO was used as negative control. The inhibition rate of each compound was calculated with the following equation: InhibitionCompound % = (Average Value1%DMSO-Average Value Compound)/(Average Value1%DMSO-Average ValueL685,458) × 100%. So the inhibition rate of 1 μM L685,458 is 100% and that of 1% DMSO is 0. The samples showing more than 60% inhibition were considered as “hits” in the screening.
as §1

The next experiment has as its target γ-secretase (Aβ). The conditions noted are these: In vivo γ-secretase assay; read-out: Reported IC50 (Aβ); cited from earlier work.
In experiment [1] the target is γ-secretase (Aβ40, Aβ42). The arrangement: method as in PMID 11574530. To be noted: immunoblotting assay, cited from earlier work.
The target of experiment [2] is γ-secretase. The arrangement: method as in PMID 16569643. The conditions noted are these: in vitro γ-secretase assay; read-out: Reported IC50; cited from earlier work.
Experiment [3] has as its target γ-secretase (Aβ40, Aβ42). More on the design: method as in PMID 15341524. To be noted: Aβ ELISA assay, cited from earlier work. (In an ELISA, binding on a coated surface is turned into a signal by an enzyme label.)
Another experiment relates to Sup-T1 NICT. More on the design: method as in PMID 15319485. To be noted: Sup-T1 NICT assay; read-out: Reported IC50; cited from earlier work.
Another experiment concerns Aβ1-42. The arrangement: method as in PMID 10882355. The conditions noted are these: read-out: Reported IC50 (Aβ1-42); cited from earlier work.
The target in experiment [4] is γ-secretase. The arrangement: method as in PMID 10913280. To be noted: HTRF assay; read-out: Reported IC50; cited from earlier work.
[5] abbreviates: S2 cell membrane, mean ± SEM, n = 3, read-out: drosophila γ-secretase IC50.

Structures are written as SMILES. Read-outs that look alike come from different tables or passages of the source.

For the compound `COC(=O)[C@@H](NC(=O)[C@H](CC(C)C)NC(=O)N(Cc1ccccc1)C[C@@H](O)[C@H](Cc1ccccc1)NC(=O)OC(C)(C)C)C(C)C` [31C], the IC50 on human γ-secretase is 53.5 ± 13.6 nM; at drosophila γ-secretase (setting [5]), 0.933 ± 0.169 nM; against mouse γ-secretase, 20.7 ± 5.24 nM; at γ-secretase (Aβ), 300 nM. For the same compound, on human γ-secretase, the maximal inhibition came to 103.1%.
Turning to `C[C@H](NC(=O)Cc1cc(F)cc(F)c1)C(=O)N[C@H]1N=C(c2ccccc2)c2ccccc2N(C)C1=O` [Compound E], the concentration for half-maximal inhibition (IC50) is 53.9 ± 5.31 nM against human γ-secretase; 40.5 ± 7 nM against drosophila γ-secretase; 2.4 ± 0.605 nM on mouse γ-secretase; 0.24 nM on γ-secretase (Aβ40, Aβ42) [1] (read-out: Reported IC50 (Aβ40)); 0.37 nM on γ-secretase (Aβ40, Aβ42) [1] (read-out: Reported IC50 (Aβ42)); 7 nM at γ-secretase [2]. Also, the IC50 at γ-secretase (Aβ40, Aβ42) [3] (read-out: Reported IC50 (Aβ40)) was 0.8 nM; on γ-secretase (Aβ40, Aβ42) [3] (read-out: Reported IC50 (Aβ42)), 7 nM. In addition, on human γ-secretase, the maximal inhibition is recorded as 92.3%.
`C[C@H](NC(=O)Cc1cc(F)cc(F)c1)C(=O)N[C@H](C(=O)OC(C)(C)C)c1ccccc1` [DAPT, N-[N-(3,5-difluorophenacetyl)-L-alanyl]-S-phenylglycine t-butyl ester]: the concentration for half-maximal inhibition (IC50) at human γ-secretase was 3910 ± 551 nM; on γ-secretase (Aβ40, Aβ42) [3] (read-out: Reported IC50 (Aβ40)), 1600 nM; at γ-secretase (Aβ40, Aβ42) [3] (read-out: Reported IC50 (Aβ42)), 4000 nM. The maximal inhibition on human γ-secretase was 69.7%.
In the case of `C[C@H](NC(=O)Cc1cc(F)cc(F)c1)C(=O)N[C@@H]1C(=O)N(C)c2ccccc2-c2ccccc21` [DBZ], the IC50 against human γ-secretase was 12.5 ± 5.76 nM; on drosophila γ-secretase (setting [5]) it was 6.97 ± 1.98 nM; at mouse γ-secretase, 1.45 ± 0.435 nM; with Sup-T1 NICT, 1.7 nM. Also, the maximal inhibition on human γ-secretase is 95.2%.
For `CC12CCC(C1)C(C)(C)C2NS(=O)(=O)c1ccc(F)cc1` (stereo not drawn) [Inhibitor VI], at human γ-secretase, it took 44500 ± 25600 nM to reach half-maximal inhibition (IC50) and the maximal inhibition is on record as 67.3%. Also, in the experiment with Aβ1-42, the half-inhibitory concentration (IC50) is 1800 nM.
Consider `CC(C)C[C@H](NC(=O)[C@H](Cc1ccccc1)C[C@@H](O)[C@H](Cc1ccccc1)NC(=O)OC(C)(C)C)C(=O)N[C@@H](Cc1ccccc1)C(N)=O` [L685,458], for which the concentration for half-maximal inhibition (IC50) on human γ-secretase is 4.43 ± 0.969 nM; on drosophila γ-secretase (setting [5]) it was 10.3 ± 1.66 nM; on mouse γ-secretase it was 0.976 ± 0.147 nM; on γ-secretase (Aβ40, Aβ42) [1] (read-out: Reported IC50 (Aβ40)), 4 nM; on γ-secretase (Aβ40, Aβ42) [1] (read-out: Reported IC50 (Aβ42)), 8 nM; on γ-secretase [4], 17 nM. The IC50 at γ-secretase [2] was 3 nM.
